Laboratory results from ChEMBL document CHEMBL2074026, “Novel experimental parameters to quantify the modulation of absorptive and secretory transport of compounds by P-glycoprotein in cell culture models of intestinal epithelium” (Pharm Res, 2003).
Values belong to the compound of their own block, whether it stands above or below them.

Tests used:
Format in all cases: functional, cell-based
[1] = target: T1, ATP-dependent translocase ABCB1 (Homo sapiens, UniProt P08183); experiment: TP_TRANSPORTER: transepithelial transport of Saquinavir at a concentration of 20 uM in MDR1-expressing MDCK cells; conditions: dog
[2] = target: T1, ATP-dependent translocase ABCB1; experiment: TP_TRANSPORTER: transepithelial transport of Saquinavir at a concentration of 20 uM in Caco-2 cells; conditions: caco-2, 20 µM
[3] = target: T1, ATP-dependent translocase ABCB1; experiment: TP_TRANSPORTER: transepithelial transport of Vinblastine at a concentration of 0.1 uM in MDR1-expressing MDCK cells; conditions: dog
[4] = target: T1, ATP-dependent translocase ABCB1; experiment: TP_TRANSPORTER: transepithelial transport in the presence of Vinblastine at 0.1 uM in Caco-2 cells
[5] = target: T1, ATP-dependent translocase ABCB1; experiment: TP_TRANSPORTER: transepithelial transport of Acebutolol at a concentration of 20 uM in MDR1-expressing MDCK cells; conditions: dog
[6] = target: T1, ATP-dependent translocase ABCB1; experiment: TP_TRANSPORTER: transepithelial transport of Acebutolol at a concentration of 20 uM in Caco-2 cells; conditions: caco-2, 20 µM
[7] = target: T1, ATP-dependent translocase ABCB1; experiment: TP_TRANSPORTER: transepithelial transport of Rhodamine at a concentration of 10 uM in Caco-2 cells
[8] = target: T1, ATP-dependent translocase ABCB1; experiment: TP_TRANSPORTER: transepithelial transport of Rhodamine at a concentration of 10 uM in MDR1-expressing MDCK cells; conditions: dog
[9] = target: T1, ATP-dependent translocase ABCB1; experiment: TP_TRANSPORTER: transepithelial transport of Methylprednisolone at a concentration of 20 uM in Caco-2 cells; conditions: caco-2, 20 µM
[10] = target: T1, ATP-dependent translocase ABCB1; experiment: TP_TRANSPORTER: transepithelial transport of Methylprednisolone at a concentration of 20 uM in MDR1-expressing MDCK cells; conditions: dog
[11] = target: T1, ATP-dependent translocase ABCB1; experiment: TP_TRANSPORTER: transepithelial transport of Taxol at a concentration of 10 uM in Caco-2 cells
[12] = target: T1, ATP-dependent translocase ABCB1; experiment: TP_TRANSPORTER: transepithelial transport of Taxol at a concentration of 10 uM in MDR1-expressing MDCK cells; conditions: dog
[13] = target: T1, ATP-dependent translocase ABCB1; experiment: TP_TRANSPORTER: transepithelial transport of Doxorubicin at a concentration of 10 uM in MDR1-expressing MDCK cells; conditions: dog
[14] = target: T1, ATP-dependent translocase ABCB1; experiment: TP_TRANSPORTER: transepithelial transport of Doxorubicin at a concentration of 10 uM in Caco-2 cells
[15] = target: T1, ATP-dependent translocase ABCB1; experiment: TP_TRANSPORTER: transepithelial transport of Prednisolone at a concentration of 20 uM in MDR1-expressing MDCK cells; conditions: dog
[16] = target: T1, ATP-dependent translocase ABCB1; experiment: TP_TRANSPORTER: transepithelial transport of Colchicine at a concentration of 25 uM in Caco-2 cells; conditions: caco-2, 25 µM
[17] = target: T1, ATP-dependent translocase ABCB1; experiment: TP_TRANSPORTER: transepithelial transport of Colchicine at a concentration of 25 uM in MDR1-expressing MDCK cells; conditions: dog
[18] = target: T1, ATP-dependent translocase ABCB1; experiment: TP_TRANSPORTER: transepithelial transport of Digoxin at a concentration of 10 uM in MDR1-expressing MDCK cells; conditions: dog
[19] = target: T1, ATP-dependent translocase ABCB1; experiment: TP_TRANSPORTER: transepithelial transport of Digoxin at a concentration of 10 uM in Caco-2 cells
[20] = target: T1, ATP-dependent translocase ABCB1; experiment: TP_TRANSPORTER: transepithelial transport of Ranitidine at a concentration of 100 uM in MDR1-expressing MDCK cells; conditions: dog
[21] = target: T1, ATP-dependent translocase ABCB1; experiment: TP_TRANSPORTER: transepithelial transport of Ranitidine at a concentration of 100 uM in Caco-2 cells; conditions: caco-2, 100 µM

T1 sequence (P08183 whole entry): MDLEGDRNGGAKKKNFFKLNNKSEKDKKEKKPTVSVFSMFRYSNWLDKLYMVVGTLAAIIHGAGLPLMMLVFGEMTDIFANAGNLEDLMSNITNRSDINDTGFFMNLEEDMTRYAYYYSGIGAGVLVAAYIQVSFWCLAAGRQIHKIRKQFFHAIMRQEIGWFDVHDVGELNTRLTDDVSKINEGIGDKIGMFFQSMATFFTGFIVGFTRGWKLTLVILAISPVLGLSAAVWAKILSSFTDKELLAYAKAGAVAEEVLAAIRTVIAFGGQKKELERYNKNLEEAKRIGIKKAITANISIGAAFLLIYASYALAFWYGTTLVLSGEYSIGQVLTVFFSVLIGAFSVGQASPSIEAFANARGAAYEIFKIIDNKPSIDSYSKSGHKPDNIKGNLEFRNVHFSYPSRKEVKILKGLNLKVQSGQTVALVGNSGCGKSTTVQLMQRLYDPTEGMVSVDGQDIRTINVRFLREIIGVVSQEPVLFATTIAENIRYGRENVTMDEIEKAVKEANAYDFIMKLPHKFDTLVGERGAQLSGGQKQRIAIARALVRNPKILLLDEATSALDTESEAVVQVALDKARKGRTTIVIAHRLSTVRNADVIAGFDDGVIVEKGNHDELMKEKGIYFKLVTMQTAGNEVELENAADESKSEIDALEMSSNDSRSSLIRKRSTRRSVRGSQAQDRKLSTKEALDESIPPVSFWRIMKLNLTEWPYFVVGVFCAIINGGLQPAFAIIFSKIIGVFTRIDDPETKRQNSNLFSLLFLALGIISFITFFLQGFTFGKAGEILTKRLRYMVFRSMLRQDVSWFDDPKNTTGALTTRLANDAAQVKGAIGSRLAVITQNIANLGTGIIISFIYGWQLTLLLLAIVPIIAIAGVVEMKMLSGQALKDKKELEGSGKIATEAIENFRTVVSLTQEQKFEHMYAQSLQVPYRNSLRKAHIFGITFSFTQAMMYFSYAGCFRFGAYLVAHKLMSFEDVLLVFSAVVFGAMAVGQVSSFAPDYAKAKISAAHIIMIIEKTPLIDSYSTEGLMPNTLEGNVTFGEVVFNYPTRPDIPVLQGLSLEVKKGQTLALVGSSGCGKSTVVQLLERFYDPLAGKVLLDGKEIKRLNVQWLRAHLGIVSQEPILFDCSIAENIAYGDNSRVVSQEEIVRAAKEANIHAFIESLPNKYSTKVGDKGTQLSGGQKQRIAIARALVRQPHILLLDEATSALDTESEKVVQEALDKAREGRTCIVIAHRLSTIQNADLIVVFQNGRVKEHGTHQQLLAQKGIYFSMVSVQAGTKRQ

Structure (SMILES): CC[C@]1(O)C[C@@H]2CN(CCc3c([nH]c4ccccc34)[C@@](C(=O)OC)(c3cc4c(cc3OC)N(C)[C@H]3[C@@](O)(C(=O)OC)[C@H](OC(C)=O)[C@]5(CC)C=CCN6CC[C@]43[C@@H]65)C2)C1 [VINBLASTINE]
Activity [3]: substrate [+] | Activity [4]: substrate [+]

Structure (SMILES): CCN(CC)c1ccc2c(-c3ccccc3C(=O)O)c3ccc(=[N+](CC)CC)cc-3oc2c1.[Cl-] [RHODAMINE]
Activity [7]: substrate [+] | Activity [8]: substrate [+]

Structure (SMILES): C[C@H]1C[C@@H]2[C@H]([C@@H](O)C[C@@]3(C)[C@H]2CC[C@]3(O)C(=O)CO)[C@@]2(C)C=CC(=O)C=C12 [METHYLPREDNISOLONE]
Activity [9]: substrate [+] | Activity [10]: substrate [+]

Structure (SMILES): COc1cccc2c1C(=O)c1c(O)c3c(c(O)c1C2=O)C[C@@](O)(C(=O)CO)C[C@@H]3O[C@H]1C[C@H](N)[C@H](O)[C@H](C)O1 [DOXORUBICIN]
Activity [13]: substrate [+] | Activity [14]: substrate [+]

Structure (SMILES): COc1cc2c(c(OC)c1OC)-c1ccc(OC)c(=O)cc1[C@@H](NC(C)=O)CC2 [COLCHICINE]
Activity [16]: substrate [+] | Activity [17]: substrate [+]

Structure (SMILES): C[C@H]1O[C@@H](O[C@H]2[C@@H](O)C[C@H](O[C@H]3[C@@H](O)C[C@H](O[C@H]4CC[C@@]5(C)[C@H](CC[C@@H]6[C@@H]5C[C@@H](O)[C@]5(C)[C@@H](C7=CC(=O)OC7)CC[C@]65O)C4)O[C@@H]3C)O[C@@H]2C)C[C@H](O)[C@@H]1O [DIGOXIN]
Activity [18]: substrate [+] | Activity [19]: substrate [+]

Now from value to compound:

Activity [1]: substrate [+] | Activity [2]: substrate [+]
Structure (SMILES): CC(C)(C)NC(=O)[C@@H]1C[C@@H]2CCCC[C@@H]2CN1C[C@@H](O)[C@H](Cc1ccccc1)NC(=O)[C@H](CC(N)=O)NC(=O)c1ccc2ccccc2n1

Activity [5]: substrate [+] | Activity [6]: substrate [+]
Structure (SMILES): CCCC(=O)Nc1ccc(OCC(O)CNC(C)C)c(C(C)=O)c1 (stereo unspecified) [ACEBUTOLOL]

Activity [11]: substrate [+] | Activity [12]: substrate [+]
Structure (SMILES): CC(=O)O[C@H]1C(=O)[C@@]2(C)[C@H]([C@H](OC(=O)c3ccccc3)[C@]3(O)C[C@H](OC(=O)[C@H](O)[C@@H](NC(=O)c4ccccc4)c4ccccc4)C(C)=C1C3(C)C)[C@]1(OC(C)=O)CO[C@@H]1C[C@@H]2O [PACLITAXEL]

Activity [15]: substrate [+]
Structure (SMILES): C[C@]12C=CC(=O)C=C1CC[C@@H]1[C@@H]2[C@@H](O)C[C@@]2(C)[C@H]1CC[C@]2(O)C(=O)CO [PREDNISOLONE]

Activity [20]: substrate [+] | Activity [21]: substrate [+]
Structure (SMILES): CNC(=C[N+](=O)[O-])NCCSCc1ccc(CN(C)C)o1 [RANITIDINE]
